{"source": "patent US8012504B2", "about": "(priority 2000, dated 2011)", "key": {"[1]": {"assay": "Example 16: interaction potential, Mucinex and Sudafed 12 Hour alone or together, 3-way crossover", "format": "in vivo, human", "from_the_text": "In another study drug interaction potential for combination drugs was examined."}, "[2]": {"conditions": "in vivo; cited from earlier work"}, "clinical": {"assay": "clinical", "conditions": "human, in vivo, 1200 mg"}}, "note": "Where a name gives a salt, the structure may show the parent alone.", "data": [{"smiles": "CN[C@@H](C)[C@@H](O)c1ccccc1", "note": "[Pseudoephedrine, Pseudoephedrine hydrochloride]", "values": [{"measurement": "AUC(0-t)", "setting": "[1]; human, in vivo, po, 120 mg, Pseudoephedrine AUC0-t, mean, Treatment B: 120 mg pseudoephedrine HCl alone (Sudafed 12 Hour), overnight fast", "value": 4020, "unit": "ng·h/mL"}, {"measurement": "AUC(0-t)", "setting": "[1]; human, in vivo, po, 120 mg, Pseudoephedrine AUC0-t, mean, Treatment C: 120 mg pseudoephedrine HCl along with 1200 mg guaifenesin (Sudafed 12 Hour + Mucinex), overnight fast", "value": 3920, "unit": "ng·h/mL"}, {"measurement": "AUC(0-t)", "setting": "[1]; human, in vivo, po, 120 mg, Pseudoephedrine AUC0-t, median, Treatment B: 120 mg pseudoephedrine HCl alone (Sudafed 12 Hour), overnight fast", "value": 3820, "unit": "ng·h/mL"}, {"measurement": "AUC(0-t)", "setting": "[1]; human, in vivo, po, 120 mg, Pseudoephedrine AUC0-t, median, Treatment C: 120 mg pseudoephedrine HCl along with 1200 mg guaifenesin (Sudafed 12 Hour + Mucinex), overnight fast", "value": 3930, "unit": "ng·h/mL"}, {"measurement": "AUC(0-inf)", "setting": "[1]; human, in vivo, po, 120 mg, Pseudoephedrine AUCinf, mean, Treatment B: 120 mg pseudoephedrine HCl alone (Sudafed 12 Hour), overnight fast", "value": 4500, "unit": "ng·h/mL"}, {"measurement": "AUC(0-inf)", "setting": "[1]; human, in vivo, po, 120 mg, Pseudoephedrine AUCinf, mean, Treatment C: 120 mg pseudoephedrine HCl along with 1200 mg guaifenesin (Sudafed 12 Hour + Mucinex), overnight fast", "value": 4400, "unit": "ng·h/mL"}, {"measurement": "AUC(0-inf)", "setting": "[1]; human, in vivo, po, 120 mg, Pseudoephedrine AUCinf, median, Treatment B: 120 mg pseudoephedrine HCl alone (Sudafed 12 Hour), overnight fast", "value": 4430, "unit": "ng·h/mL"}, {"measurement": "AUC(0-inf)", "setting": "[1]; human, in vivo, po, 120 mg, Pseudoephedrine AUCinf, median, Treatment C: 120 mg pseudoephedrine HCl along with 1200 mg guaifenesin (Sudafed 12 Hour + Mucinex), overnight fast", "value": 4250, "unit": "ng·h/mL"}, {"measurement": "Cmax", "setting": "[1]; human, in vivo, po, 120 mg, Pseudoephedrine Cmax, mean, Treatment B: 120 mg pseudoephedrine HCl alone (Sudafed 12 Hour), overnight fast", "value": 296, "unit": "ng/mL"}, {"measurement": "Cmax", "setting": "[1]; human, in vivo, po, 120 mg, Pseudoephedrine Cmax, mean, Treatment C: 120 mg pseudoephedrine HCl along with 1200 mg guaifenesin (Sudafed 12 Hour + Mucinex), overnight fast", "value": 289, "unit": "ng/mL"}, {"measurement": "Cmax", "setting": "[1]; human, in vivo, po, 120 mg, Pseudoephedrine Cmax, median, Treatment B: 120 mg pseudoephedrine HCl alone (Sudafed 12 Hour), overnight fast", "value": 298, "unit": "ng/mL"}, {"measurement": "Cmax", "setting": "[1]; human, in vivo, po, 120 mg, Pseudoephedrine Cmax, median, Treatment C: 120 mg pseudoephedrine HCl along with 1200 mg guaifenesin (Sudafed 12 Hour + Mucinex), overnight fast", "value": 286, "unit": "ng/mL"}, {"measurement": "half-life", "setting": "[1]; human, in vivo, po, 120 mg, Pseudoephedrine Half-life, mean, Treatment B: 120 mg pseudoephedrine HCl alone (Sudafed 12 Hour), overnight fast", "value": 6.05, "unit": "h"}, {"measurement": "half-life", "setting": "[1]; human, in vivo, po, 120 mg, Pseudoephedrine Half-life, mean, Treatment C: 120 mg pseudoephedrine HCl along with 1200 mg guaifenesin (Sudafed 12 Hour + Mucinex), overnight fast", "value": 6.04, "unit": "h"}, {"measurement": "half-life", "setting": "[1]; human, in vivo, po, 120 mg, Pseudoephedrine Half-life, median, Treatment B: 120 mg pseudoephedrine HCl alone (Sudafed 12 Hour), overnight fast", "value": 5.81, "unit": "h"}, {"measurement": "half-life", "setting": "[1]; human, in vivo, po, 120 mg, Pseudoephedrine Half-life, median, Treatment C: 120 mg pseudoephedrine HCl along with 1200 mg guaifenesin (Sudafed 12 Hour + Mucinex), overnight fast", "value": 5.63, "unit": "h"}, {"measurement": "Tmax", "setting": "[1]; human, in vivo, po, 120 mg, Pseudoephedrine Tmax, mean, Treatment B: 120 mg pseudoephedrine HCl alone (Sudafed 12 Hour), overnight fast", "value": 6.17, "unit": "h"}, {"measurement": "Tmax", "setting": "[1]; human, in vivo, po, 120 mg, Pseudoephedrine Tmax, mean, Treatment C: 120 mg pseudoephedrine HCl along with 1200 mg guaifenesin (Sudafed 12 Hour + Mucinex), overnight fast", "value": 5.75, "unit": "h"}, {"measurement": "Tmax", "setting": "[1]; human, in vivo, po, 120 mg, Pseudoephedrine Tmax, median, Treatment B: 120 mg pseudoephedrine HCl alone (Sudafed 12 Hour), overnight fast", "value": 6, "unit": "h"}, {"measurement": "Tmax", "setting": "[1]; human, in vivo, po, 120 mg, Pseudoephedrine Tmax, median, Treatment C: 120 mg pseudoephedrine HCl along with 1200 mg guaifenesin (Sudafed 12 Hour + Mucinex), overnight fast", "value": 6, "unit": "h"}, {"measurement": "Pseudoephedrine Clearance", "setting": "[1]; mean, Treatment B: 120 mg pseudoephedrine HCl alone (Sudafed 12 Hour), overnight fast", "value": 23.66, "unit": "L/h"}, {"measurement": "Pseudoephedrine Clearance", "setting": "[1]; mean, Treatment C: 120 mg pseudoephedrine HCl along with 1200 mg guaifenesin (Sudafed 12 Hour + Mucinex), overnight fast", "value": 24.30, "unit": "L/h"}, {"measurement": "Pseudoephedrine Clearance", "setting": "[1]; median, Treatment B: 120 mg pseudoephedrine HCl alone (Sudafed 12 Hour), overnight fast", "value": 22.20, "unit": "L/h"}, {"measurement": "Pseudoephedrine Clearance", "setting": "[1]; median, Treatment C: 120 mg pseudoephedrine HCl along with 1200 mg guaifenesin (Sudafed 12 Hour + Mucinex), overnight fast", "value": 23.16, "unit": "L/h"}, {"measurement": "mean elimination half-life", "setting": "[2]", "value": "4 to 6", "unit": "h"}]}, {"smiles": "COc1ccccc1OCC(O)CO", "note": "(centres unmarked) [Guaifenesin, 3-(2-methoxyphenoxy)-1,2-propanediol]", "values": [{"measurement": "AUC(0-t)", "setting": "[1]; human, in vivo, 1200 mg, Guaifenesin AUC0-t", "value": 7060, "unit": "ng·h/mL"}, {"measurement": "AUC(0-inf)", "setting": "[1]; human, in vivo, 1200 mg, Guaifenesin AUCinf", "value": 7280, "unit": "ng·h/mL"}, {"measurement": "clearance", "setting": "[1]; human, in vivo, 1200 mg, Guaifenesin Clearance", "value": 2750, "unit": "mL/min"}, {"measurement": "Cmax", "setting": "[1]; human, in vivo, 1200 mg, Guaifenesin Cmax", "value": 1700, "unit": "ng/mL"}, {"measurement": "half-life", "setting": "[1]; human, in vivo, 1200 mg, Guaifenesin Half-life", "value": 2.82, "unit": "h"}, {"measurement": "Tmax", "setting": "[1]; human, in vivo, 1200 mg, Guaifenesin Tmax", "value": 0.75, "unit": "h"}, {"measurement": "AUC(0-t)", "setting": "clinical; Guaifenesin AUC0-t", "value": 8350, "unit": "ng·h/mL"}, {"measurement": "AUC(0-inf)", "setting": "clinical; Guaifenesin AUCinf", "value": 8830, "unit": "ng·h/mL"}, {"measurement": "clearance", "setting": "clinical; Guaifenesin Clearance", "value": 2270, "unit": "mL/min"}, {"measurement": "Cmax", "setting": "clinical; Guaifenesin Cmax", "value": 1920, "unit": "ng/mL"}, {"measurement": "half-life", "setting": "clinical; Guaifenesin Half life", "value": 3.03, "unit": "h"}, {"measurement": "Tmax", "setting": "clinical; Guaifenesin Tmax", "value": 0.75, "unit": "h"}, {"measurement": "typical plasma half-life", "setting": "[2]", "value": "approximately one"}]}]}
